Measurements as given in patent US20250041373A1, “EXTRACTION METHOD OF HIBISCUS SABDARIFFA L. TAITUNG NO. 6, HIBISCUS SABDARIFFA L. TAITUNG NO. 6 EXTRACT USING THE SAME, AND USES THEREOF” (WEL-BLOOM BIO-TECH CORPORATION, priority 2023, published 2025).

Tested on: B16-F10 melanoma cells
Test: melanin content analysis in α-MSH-treated B16-F10 melanoma cells
Assay type: cell-based
Settings: co-treatment with 500 nM α-MSH; positive control, concentration not given; FIG. 6
Procedure: Further, in the present embodiment, an ability of the Hibiscus sabdariffa L. ‘TAITUNG NO. 6’ extract to inhibit melanin production is evaluated by a melanin content analysis, and a method thereof is as follows. B16-F10 melanoma cells (1×10^5) are seeded in a 24-well culture plate and treated with 500 nM α-melanocyte stimulating hormone (α-MSH) at 37° C. for 24 hours. Then, these cells are treated with various concentrations of the Hibiscus sabdariffa L. ‘TAITUNG NO. 6’ extract for 48 hours, and are treated with trypsin after being rinsed with PBS. A cell pellet is collected by centrifugation at 10,000 g for 20 minutes at a room temperature, and is then lysed with 1N NaOH for 60 minutes. The melanin content is analyzed by comparing an absorbance value of a test sample at 405 nm with a standard curve obtained by using a synthetic melanin.

Question: Which “melanin content of the melanoma cells” value does the source give for `O=c1cc(CO)occ1O` [kojic acid] here?
Answer: Its value is “significantly decreased”.
